How the values were obtained:
[1] = biological target: T1, Amyloid-beta precursor protein (Homo sapiens, UniProt P05067); assay: Displacement of [125I]1-Iodo-4-((4-methoxyphenoxy)methyl)benzene from amyloid beta42 (unknown origin) after 3 hrs by gamma counting
Liver [2] = assay: Biostability in mouse liver homogenate assessed as radioactivity at 30 uCi at 37 degC measured at 60 mins by HPLC; type: ADME, tissue-based; conditions: tissue homogenate, 1 h
Plasma = assay: Biostability in mouse plasma assessed as radioactivity at 30 uCi at 37 degC measured at 60 mins by HPLC; type: ADME, cell-free; conditions: 1 h
[3] = In vivo biostability in ICR mouse urine assessed as radioactivity at 250 uCi, iv measured at 30 mins post dose; type: ADME, organism-based; conditions: 0.5 h
Brain [4] = assay: In vivo biostability in ICR mouse brain assessed as radioactivity at 250 uCi, iv measured at 60 mins post dose; type: ADME, organism-based; conditions: 1 h
Liver [5] = assay: In vivo biostability in ICR mouse liver assessed as radioactivity at 250 uCi, iv measured at 30 mins post dose; type: ADME, organism-based; conditions: 0.5 h
Brain [6] = assay: Biodistribution in ICR mouse brain at 250 uCi, iv measured at 2 mins post dose; type: ADME, organism-based; conditions: in vivo
Brain [7] = assay: In vivo biostability in ICR mouse brain assessed as radioactivity at 250 uCi, iv measured at 10 mins post dose; type: ADME, organism-based
Brain [8] = assay: Ratio of drug uptake in ICR mouse brain at 250 uCi, iv measured at 2 mins post dose to drug uptake in ICR mouse brain at 250 uCi, iv measured at 60 mins post dose; type: ADME, organism-based; conditions: in vivo
[9] = In vivo biostability in ICR mouse urine assessed as radioactivity at 250 uCi, iv measured at 60 mins post dose; type: ADME, organism-based; conditions: 1 h
Brain [10] = assay: In vivo biostability in ICR mouse brain assessed as radioactivity at 250 uCi, iv measured at 30 mins post dose; type: ADME, organism-based; conditions: 0.5 h
[11] = In vivo biostability in ICR mouse feces assessed as radioactivity at 250 uCi, iv measured at 30 mins post dose; type: ADME, organism-based; conditions: 0.5 h
[12] = biological target: T1, Amyloid-beta precursor protein; assay: Binding affinity to amyloid beta42 (unknown origin) after 3 hrs by gamma counting
Blood [13] = assay: In vivo biostability in ICR mouse blood assessed as radioactivity at 250 uCi, iv measured at 10 mins post dose; type: ADME, organism-based
Liver [14] = assay: In vivo biostability in ICR mouse liver assessed as radioactivity at 250 uCi, iv measured at 60 mins post dose; type: ADME, organism-based; conditions: 1 h
[15] = In vivo biostability in ICR mouse urine assessed as radioactivity at 250 uCi, iv measured at 10 mins post dose; type: ADME, organism-based
Blood [16] = assay: In vivo biostability in ICR mouse blood assessed as radioactivity at 250 uCi, iv measured at 30 mins post dose; type: ADME, organism-based; conditions: 0.5 h
Blood [17] = assay: In vivo biostability in ICR mouse blood assessed as radioactivity at 250 uCi, iv measured at 2 mins post dose; type: ADME, organism-based
Liver [18] = assay: In vivo biostability in ICR mouse liver assessed as radioactivity at 250 uCi, iv measured at 10 mins post dose; type: ADME, organism-based
[19] = In vivo biostability in ICR mouse feces assessed as radioactivity at 250 uCi, iv measured at 60 mins post dose; type: ADME, organism-based; conditions: 1 h
Blood [20] = assay: In vivo biostability in ICR mouse blood assessed as radioactivity at 250 uCi, iv measured at 60 mins post dose; type: ADME, organism-based; conditions: 1 h
Brain [21] = assay: Biodistribution in ICR mouse brain at 250 uCi, iv measured at 60 mins post dose; type: ADME, organism-based; conditions: in vivo, 1 h
Liver [22] = assay: In vivo biostability in ICR mouse liver assessed as radioactivity at 250 uCi, iv measured at 2 mins post dose; type: ADME, organism-based
[23] = Partition coefficient, log D of the compound; type: physicochemical; conditions: octanol/water
Brain [24] = assay: In vivo biostability in ICR mouse brain assessed as radioactivity at 250 uCi, iv measured at 2 mins post dose; type: ADME, organism-based

T1 sequence (P05067 whole entry): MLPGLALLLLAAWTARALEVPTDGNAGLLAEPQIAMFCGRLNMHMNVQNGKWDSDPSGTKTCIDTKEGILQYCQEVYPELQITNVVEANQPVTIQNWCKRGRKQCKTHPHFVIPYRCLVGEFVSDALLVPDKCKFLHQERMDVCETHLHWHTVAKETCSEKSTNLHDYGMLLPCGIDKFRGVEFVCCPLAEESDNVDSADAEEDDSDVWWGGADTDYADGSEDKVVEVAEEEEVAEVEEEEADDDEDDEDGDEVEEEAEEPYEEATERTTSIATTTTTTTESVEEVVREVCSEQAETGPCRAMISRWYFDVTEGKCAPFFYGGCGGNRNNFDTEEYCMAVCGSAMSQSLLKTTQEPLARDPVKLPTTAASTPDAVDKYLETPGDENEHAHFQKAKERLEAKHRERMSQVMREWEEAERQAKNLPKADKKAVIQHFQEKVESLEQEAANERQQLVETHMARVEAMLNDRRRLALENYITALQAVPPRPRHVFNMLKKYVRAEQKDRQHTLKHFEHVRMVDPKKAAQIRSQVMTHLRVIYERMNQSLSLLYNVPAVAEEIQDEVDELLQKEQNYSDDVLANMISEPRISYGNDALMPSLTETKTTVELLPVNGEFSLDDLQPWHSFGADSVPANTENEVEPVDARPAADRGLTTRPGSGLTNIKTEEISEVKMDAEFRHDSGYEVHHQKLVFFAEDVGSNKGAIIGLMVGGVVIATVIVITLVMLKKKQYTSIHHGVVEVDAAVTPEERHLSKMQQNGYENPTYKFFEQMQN

## COc1ccc(OCc2ccc(I)cc2)cc1
[1]; read-out: Ki
  Ki: 24.3 nM
[1]; read-out: pKi (converted)
  Ki: 24.5 nM

## COc1cccc(OCc2ccc(I)cc2)c1
[1]; read-out: Ki
  Ki: 131 nM
[1]; read-out: pKi (converted)
  Ki: 132 nM

## COc1ccccc1OCc1ccc(I)cc1
[1]; read-out: Ki
  Ki: 5160 nM
[1]; read-out: pKi (converted)
  Ki: 5130 nM

## Oc1ccc(OCc2ccc(I)cc2)cc1
[1]; read-out: Ki
  Ki: 113 nM
[1]; read-out: pKi (converted)
  Ki: 112 nM

## Oc1cccc(OCc2ccc(I)cc2)c1
[1]; read-out: Ki
  Ki: 386 nM
[1]; read-out: pKi (converted)
  Ki: 389 nM

## Oc1ccccc1OCc1ccc(I)cc1
[1]; read-out: Ki
  Ki: 2830 nM
[1]; read-out: pKi (converted)
  Ki: 2820 nM

## Fc1ccc(OCc2ccc(I)cc2)cc1
[1]; read-out: Ki
  Ki: 107 nM
[1]; read-out: pKi (converted)
  Ki: 107 nM

## Clc1ccc(OCc2ccc(I)cc2)cc1
[1]; read-out: Ki
  Ki: 18.8 nM
[1]; read-out: pKi (converted)
  Ki: 18.6 nM

## Brc1ccc(OCc2ccc(I)cc2)cc1
[1]; read-out: Ki
  Ki: 12 nM
[1]; read-out: pKi (converted)
  Ki: 12 nM

## Ic1ccc(COc2ccc(I)cc2)cc1
[1]; read-out: Ki
  Ki: 21.9 nM
[1]; read-out: pKi (converted)
  Ki: 21.9 nM

## Ic1ccc(COc2ccccc2)cc1
[1]; read-out: Ki
  Ki: 79.4 nM
[1]; read-out: pKi (converted)
  Ki: 79.4 nM

## CC(C)(C)c1ccc(OCc2ccc(I)cc2)cc1
[1]; read-out: Ki
  Ki: 118 nM
[1]; read-out: pKi (converted)
  Ki: 117 nM

## Nc1ccc(OCc2ccc(I)cc2)cc1
[1]; read-out: Ki
  Ki: 409 nM
[1]; read-out: pKi (converted)
  Ki: 407 nM

## Nc1cccc(OCc2ccc(I)cc2)c1
[1]; read-out: Ki
  Ki: 1530 nM
[1]; read-out: pKi (converted)
  Ki: 1550 nM

## Nc1ccccc1OCc1ccc(I)cc1
[1]; read-out: Ki
  Ki: 1030 nM
[1]; read-out: pKi (converted)
  Ki: 1020 nM

## CNc1ccc(OCc2ccc(I)cc2)cc1
[1]; read-out: Ki
  Ki: 48.2 nM
[1]; read-out: pKi (converted)
  Ki: 47.9 nM

## CNc1cccc(OCc2ccc(I)cc2)c1
[1]; read-out: Ki
  Ki: 594 nM
[1]; read-out: pKi (converted)
  Ki: 589 nM

## CNc1ccccc1OCc1ccc(I)cc1
[1]; read-out: Ki
  Ki: 20700 nM
[1]; read-out: pKi (converted)
  Ki: 20900 nM

## CN(C)c1ccc(OCc2ccc(I)cc2)cc1
[1]; read-out: Ki
  Ki: 17.6 nM
[1]; read-out: pKi (converted)
  Ki: 17.8 nM

## CN(C)c1cccc(OCc2ccc(I)cc2)c1
[1]; read-out: Ki
  Ki: 894 nM
[1]; read-out: pKi (converted)
  Ki: 891 nM

## COc1ccc(COc2ccc(I)cc2)cc1
[1]; read-out: Ki
  Ki: 49.4 nM
[1]; read-out: pKi (converted)
  Ki: 49 nM

## COc1ccc(SCc2ccc(I)cc2)cc1
[1]; read-out: Ki
  Ki: 530 nM
[1]; read-out: pKi (converted)
  Ki: 525 nM

## COc1ccc(OCc2ccc([125I])cc2)cc1
Liver [2]
  Stability: 100%
Plasma
  Stability: 100%
[3]
  Stability: 2.4%
Brain [4]
  Stability: 38.9%
Liver [5]
  Stability: 2.5%
Brain [6]
  Drug uptake: 6.18 % ID/g
Brain [7]
  Stability: 82%
Brain [8]
  Ratio: 16.3
[9]
  Stability: 1.3%
Brain [10]
  Stability: 46.6%
[11]
  Stability: 49.9%
[12]
  Kd: 0.56 nM
Blood [13]
  Stability: 49.7%
Liver [14]
  Stability: 1.9%
[15]
  Stability: 8.4%
Blood [16]
  Stability: 18.2%
Blood [17]
  Stability: 71.5%
Liver [18]
  Stability: 31.9%
[19]
  Stability: 40.6%
Blood [20]
  Stability: 10.6%
Brain [21]
  Drug uptake: < 0.5 % ID/g
Liver [22]
  Stability: 42.4%
[23]
  logD: 4
Brain [24]
  Stability: 95%

## COc1ccc(COc2ccc([125I])cc2)cc1
Brain [6]
  Drug uptake: > 4 % ID/g
Brain [21]
  Drug uptake: < 0.5 % ID/g
[23]
  logD: 4.16

## CN(C)c1ccc(OCc2ccc([125I])cc2)cc1
Brain [6]
  Drug uptake: > 4 % ID/g
Brain [21]
  Drug uptake: < 0.5 % ID/g
[23]
  logD: 2.89

— ChEMBL document CHEMBL3351679, “Radioiodinated benzyloxybenzene derivatives: a class of flexible ligands target to β-amyloid plaques in Alzheimer's brains” (J Med Chem, 2014)
